Results from PMC10281321, “Discovery of an effective anti-inflammatory agent for inhibiting the activation of NF-κB” (Journal of Enzyme Inhibition and Medicinal Chemistry, 2023).
Entries after “also recorded” stand apart in the source; their conditions may differ.

Assays:
[1] = Cytotoxicity by MTT assay; type: cell-based
iNOS and COX-2 = experiment: Western blot of iNOS and COX-2 expression in LPS-stimulated RAW264.7 cells; type: cell-based; settings: compound 1 h then LPS 24 h, WB
Protocol: RAW264.7 cells were seeded into 6 well plate at a density of 1.5×10^6 per well and incubated at 37 C in 5% CO2 about 24 h. RAW264.7 cells were pretreated with […]
were lysed in 300 μL RIPA cell lysis buffer and the samples were analyzed by WB. […] All antibodies were purchased from ZENBIO. […]

[2] = system: RELA (p65) and NFKB1 (p50) subunits of NF-κB; experiment: Western blot of TNFα-induced nuclear translocation of p65 and p50 in HEK293T cells; type: cell-based; settings: compound 4, 2, 1 μM 1 h, then TNF-α 12 h, nuclear protein WB
Protocol: HEK293T cells were seeded into 6 well plate at a density of 1.5×10^6 cells per well and incubated at 37°C in 5% CO2 about 24 h. HEK293T cells were pretreated with compound (4, 2, 1 μM) for 1 h, then treated with TNF-α (1 μg/mL) for 12 h. The nuclear protein was extracted by Nuclear protein extraction kit(Beyotime).The samples were analyzed by WB.
All antibodies were purchased from ZENBIO. […]

[3] = system: LPS-stimulated RAW264.7 cells; experiment: NO release inhibition in LPS-stimulated RAW264.7 cells (Griess reagent); type: cell-based
Protocol: After incubated for 24 hours, cells were treated with tested compounds for different
concentrations(3.125,6.25,12.5,25 and 50μM) for 1 h, and then treated with 1 μg/mL LPS
for further 24 h. The supernatants were collected and NO level was measured using
Griess reagent (Beyotime, China). […]

NF-κB p65 and IκBα = experiment: Western blot of LPS-induced phosphorylation of p65 and IκBα in RAW264.7 cells; type: cell-based; settings: compound 4, 2, 1 μM 1 h, then LPS 1 μg/mL 30 min, WB
Protocol: (§1) RAW264.7 cells were seeded into 6 well plate at a density of 1.5×10^6 per well and incubated at 37 C in 5% CO2 about 24 h. RAW264.7 cells were pretreated with compound (4, 2, 1 μM) for 1 h, then treated with LPS (1 μg/mL) for 30 min. The cells were lysed in 300 μL RIPA cell lysis buffer and the samples were analyzed by WB. […] All antibodies were purchased from ZENBIO. […]

[4] = system: LPS-induced inflammation model of mice; experiment: LPS-induced inflammation model in vivo; parameters: species or system C57BL/6 mice
Protocol: All antibodies were purchased from ZENBIO.
4.9 Establishment of LPS-induced inflammation models in vivo
The 30 male C57BL/6 mice weighing 18-22 g were purchased from Animal Department of Anhui Medical University. After adaptive feeding for a week, mice were randomly divided into five groups on average, including the control group, LPS group, compound 51 (5,10,20 mg/kg) +LPS group. Before received 20 mg/kg LPS by intraperitoneal injection, mice were gavaged for three days of compound 51. 6 hours after received LPS, the blood and tissues were taken from mice. The levels of IL-6, TNF-α, SOD and MDA

MAPKs (P38, JNK and ERK) = experiment: Western blot of LPS-regulated MAPK signalling activation in RAW264.7 cells; type: cell-based; settings: LPS stimulated, WB
Protocol: as §1

NF-κB = NF-κB transcriptional activity dual-luciferase reporter assay, TNF-α stimulated; type: cell-based; settings: HEK293T cells transfected with NF-κB reporter plasmid, stimulated by TNF-α
Protocol: (§2) 4.5. NF-κB transcriptional activity assay
HEK293T cells were seeded into 96 well plate at a density of 1×10^5 cells per well. After incubated for 24 hours, cells were transfected with NF-κB reporter plasmid at 100 ng/well using lip2000.Six hours later, the medium was replaced by fresh medium containing tested compounds with different concentrations. Then incubated for another hour, TNF-α was added for a final concentration at 10 ng/mL.12 hours later, the cell lysate was collected and the RLU was measured by microplate reader. […]

TNF-α and IL-6 = TNF-α and IL-6 assay (ELISA) in LPS-stimulated RAW264.7 cells; type: cell-based; settings: 1 μg/mL LPS 24 h, supernatant ELISA
Protocol: 4.6. TNF-α and IL-6 assay
(§3) RAW264.7 cells were seeded into 6 well plate at a density of 1.5×10^6 cells per well. After incubated for 24 hours, cells were treated with different concentrations of compound and stimulated by 1 μg/mL LPS after one hour.24 hours later, the supernatant was collected and measured by ELISA kits(MultiScience). […]

RAW264.7 cells = experiment: Reactive oxygen species (ROS) assay in LPS-stimulated RAW264.7 cells; type: cell-based; settings: 1 μg/mL LPS 24 h, DCFH-DA
Protocol: […]
as §2
HEK293T cells were seeded into 96 well plate at a density of 1×10^5 cells per well. After incubated for 24 hours, cells were transfected with NF-κB reporter plasmid at 100 ng/well using lip2000.Six hours later, the medium was replaced by fresh medium containing tested compounds with different concentrations. Then incubated for another hour, TNF-α was added for a final concentration at 10 ng/mL.12 hours later, the cell lysate was collected and the RLU was measured by microplate reader.
4.6. […]
as §3
stimulated by 1 μg/mL LPS after one hour.24 hours later, cells were collected and washed by PBS for three times. […] Cell samples were incubated for 20 min at 37°C,and then the fluorescence intensity measured by microplate reader using Ex λ 488 nm and Em λ 525 […]

[5] = compound 51 5,10,20 mg/kg gavaged, LPS i.p.
[6] = compound 51 5,10,20 mg/kg gavaged, LPS i.p., ELISA

In the case of CC(=O)Nc1ccc(NC(=O)c2cc(-c3ccc(N)cc3Cl)cnc2N)cc1 [Compound 51], the IC50 [1] is reported as greater than 50 µM, the “cytotoxicity (in words)” value [1] is reported as “did not show obvious cytotoxicity” and the “expression of COX-2” value (iNOS and COX-2) is reported as “decreased significantly”. For the same compound, the “expression of iNOS” value (iNOS and COX-2) was “decreased significantly”, the “TNFα-induced nuclear translocation of p50” value [2] was “inhibited by compound in a dose dependent manner” and the “TNFα-induced nuclear translocation of p65” value [2] was “inhibited by compound in a dose dependent manner”. For the same compound, the IC50 ([3]; Mus musculus, LPS-stimulated RAW264.7 cells, Griess Reagent) was 3.1 ± 1.1 µM, the “anti-inflammatory activity (in words)” value ([3]; SAR summary covering NO release and NF-κB reporter inhibition) was “superior anti-inflammatory activity” and the “LPS-induced phosphorylation of IκBα” value (NF-κB p65 and IκBα) was “suppressed significantly in a dose dependent manner”. For the same compound, the “LPS-induced phosphorylation of p65” value (NF-κB p65 and IκBα) was “suppressed significantly in a dose dependent manner”, the “activation of NF-κB in splenic organ” value ([4]; LPS i.p., spleen WB) was “suppressed the activation of NF-κB in splenic organ” and the “injury of spleen (HE staining)” value ([4]; compound 51 5,10,20 mg/kg gavaged three days before LPS i.p.) was “alleviated these injury in a dose-dependent manner”. The “gastric distention and splenomegaly” value ([4]; compound 51 5,10,20 mg/kg gavaged three days before LPS i.p., 6 hours after LPS) was “these symptoms were relieved”, the “MDA activity in blood” value [4, 5] was “reversed their activity; also recorded: decreased MDA activity” and the “SOD activity in blood” value [4, 5] was “reversed their activity; also recorded: increased SOD activity”. For the same compound, the “IL-6 level in blood” value [4, 6] was “decreased obviously”, the “TNF-α level in blood” value [4, 6] was “decreased obviously” and the “phosphorylation of ERK” value (MAPKs (P38, JNK and ERK)) was “significantly decreased”. For the same compound, the “phosphorylation of JNK” value (MAPKs (P38, JNK and ERK)) was “significantly decreased”, the “phosphorylation of P38” value (MAPKs (P38, JNK and ERK)) was “significantly decreased” and the IC50 (NF-κB) was 0.172 ± 0.0114 µM. For the same compound, the IC50 (NF-κB; Homo sapiens, HEK-293T) was 0.173 µM, the “level of IL-6” value (TNF-α and IL-6) was “decreased the levels of TNF-α and IL-6 significantly in a dose dependent manner” and the “level of TNF-α” value (TNF-α and IL-6) was “decreased the levels of TNF-α and IL-6 significantly in a dose dependent manner”. The “level of ROS” value (RAW264.7 cells) was “decrease the level of ROS obviously”.
